# Measured values: US6355619B1, “Peptide tumor cell growth inhibitors” (Board of Regents, The University of Texas System, priority 1996, dated 2002)
# Where two headings read alike, the source gives them in different places.
# Experiments:
# [1] = system: IL-8 receptors on neutrophils; test: Inhibition of 125I-labeled IL-8 binding to human neutrophils; details: for Receptor 1 Bmax of IL-8, two-site model / Receptor 2 Bmax of IL-8, two-site model: binding isotherms, Lundon I
# Procedure: Therefore, in pursuing this aim, the present inventors assayed various other peptide compositions for IL-8 inhibitory activity by screening a library of 400 groups of hexapeptides. In these screening assays, ^125I-labeled interleukin-8 (10^−12 M) was mixed with 100 μM peptide, then added to neutrophils and incubated at 4° C. for 90 min. The bound radioactivity was separated from unbound by centrifugation through a dense cushion of a mixture of paraffin and silicon oils and the ^125I bound to neutrophils was counted in a gamma radiation spectrometer, allowing the results to be expressed as the percent of IL-8 binding which was inhibited.
# The use of human subjects for acquisition of neutrophils was approved by the Institutional Review Board for human experimentation. For the preparation of neutrophils, human blood was anticoagulated with heparin for enzyme release studies and with 0.33% sodium citrate for other studies. For chemotactic and enzyme release studies neutrophils were separated by dextran sedimentation and erythrocyte lysis by the method of Boyum (Kohler and Milstein, 1975). For binding studies and cytotoxic studies, the neutrophils were further purified in gradients of Percoll (Pharmacia Fine Chemicals, Piscataway, N.J.) to a purity of 90-93% (Kohler and Milstein, 1975).
# Recombinant human IL-8 (72 amino acids; Pepro Tech Inc., Rocky Hill, N.J.) was radioactively labeled with ^125I by the chloramine T method of Hunter and Greenwood (Hunter and Greenwood, 1962). Binding studies were performed according to Besemer et al. (1989), as follows: Neutrophils in phosphate buffered saline pH 7.4 (PBS) containing 0.1% bovine serum albumin (BSA) were incubated with labeled ligand in the presence or absence of the peptide being tested for 90 min at 4° C. to reach equilibrium and then centrifuged at 12,000×g for 3 min in Beckman B microfuge (Beckman Instruments, Fullerton, Calif.), through a cushion consisting of a mixture of paraffin oil Fisher Scientific, Fair Lawn, N.J.) and silicon oil (Serva Co., N.Y., N.Y.). The pellet and supernatant were then counted in a gamma radiation spectrometer. The non-specific binding was estimated to measure the binding in the presence of 100-fold excess of non-labeled ligand. The binding constants were calculated using the computer programs Lundon I and Lundon II.
# In these studies, a screening for inhibition was carried out at 100 μM concentration of the peptide being tested, with a 10^−12 M concentration of IL-8. In the first series of studies, twenty peptides were synthesized with the carboxyl-terminal residue of RRWWCX (SEQ ID NO:23) being changed to each of the standard protein amino acids in turn.
# [2] = system: SP2/o mouse myeloma cell lines; test: Growth of SP2/o myeloma cells stimulated by murine interleukin-6; assay type: cell-based
# A375P melanoma cells = test: Tumor cell growth, A375P; assay type: cell-based
# [3] = 100 μM peptide, 72 hr, trypan blue dye exclusion
# Procedure: The viability of Hs 294T cells after the culture for 72 hr in the presence of Antileukinate. Melanoma cell line Hs 294T was cultured in the presence of various concentrations of Antileukinate for 72 hr. The viability of the cells was measured by means of trypan blue dye exclusion.
# [4] = +10 μM Ac-RRWWCR, binding inhibition curves, Lundon II
substance,measurement,setting,value
RRWWCR [Ac-RRWWCR-NH2],concentration at which IL-8 binding was suppressed significantly,[1]; 1 nM 125I-labeled IL-8 (FIG. 5),100 nM
same,EC50,"[1]; 1 nM 125I-labeled IL-8, 90 min at 4° C., multiple replicates, read-out: average EC50 of the binding inhibition curve",13.7 ± 0.6 µM
same,EC50,"[1]; 1 nM IL-8, FIG. 10, peptide premixed with ligand 15 min, read-out: EC50, inhibition of binding of IL-8 to neutrophils",~25 µM
same,inhibition of IL-8 binding to neutrophils,[1]; 10 μM peptide (FIG. 9),20%
same,"Receptor 1 Bmax of IL-8, two-site model",[1]; 10 μM peptide,91.9 ± 9.2 fmole/10^6 cells
same,"Receptor 2 Bmax of IL-8, two-site model",[1]; 10 μM peptide,90.9 ± 9.7 fmole/10^6 cells
same,IL-8 binding inhibition at lower peptide concentration (FIG. 1),[1]; 20 μM peptide,most potent inhibitor
same,"Receptor 1 Bmax of IL-8, two-site model",[1]; 20 μM peptide,90.9 ± 27.3 fmole/10^6 cells
same,"Receptor 2 Bmax of IL-8, two-site model",[1]; 20 μM peptide,76.2 ± 11.8 fmole/10^6 cells
same,"Receptor 1 Bmax of IL-8, two-site model",[1]; 40 μM peptide,82.0 ± 25.4 fmole/10^6 cells
same,"Receptor 2 Bmax of IL-8, two-site model",[1]; 40 μM peptide,44.2 ± 30.0 fmole/10^6 cells
same,% INHIB. (IL-8 binding to neutrophils),"[1]; 100 μM peptide, 10^−12 M IL-8, hexamer RRWWCX series, first screen",112.2%
same,Receptor 1 Bmax of IL-8,[1]; [4],11.2 ± 0.8 fmole/10^6 cells
same,Receptor 2 Bmax of IL-8,[1]; [4],75.6 ± 0.7 fmole/10^6 cells
same,% INHIB. (IL-8 binding to neutrophils),"[1]; first set of heptamer studies, D-amino acid RRWWCRX series, methodology of Example I",112.2%
same,effectiveness relative to the non-acetylated peptide,[1]; inhibiting IL-8 binding to neutrophils,almost twice as effective
same,IC50,"[1]; read-out: IC50, binding of radiolabeled IL-8",13.7 µM
same,Ki,"[1]; specific binding of 125I-labeled IL-8, read-out: apparent K1 (estimated, purely competitive single site model)",~10 µM
same,% Binding Inhibition (IL-8 binding to neutrophils),"[1]; synthetic peptides, standard assay (Table 6)",98.6 ± 0.9%
same,effect on growth of SP2/o mouse myeloma cell lines,[2],did not affect the growth
same,effect on cell growth,A375P melanoma cells,suppresses the growth
same,cell lysis under conditions used in chemotaxis,"neutrophils; 100 μM peptide, RPMI-1640 1% BSA, 30 min at 37° C.",had no effect
same,cells damaged under conditions used in chemotaxis,"neutrophils; 500 μM peptide, RPMI-1640 1% BSA, 30 min at 37° C.",~25%
same,percentage of cells lysed,"neutrophils; PBS containing 0.1% BSA, 90 min at 4° C., up to 500 μM peptide",remained near control level
same,viability of Hs 294T cells,[3],greater than 92%
